Results taken from patent US7781428B2 (Pfizer Inc., priority 2006, dated 2010).

Target: T1, mineralocorticoid receptor (MR) (Homo sapiens, UniProt P08235)
T1 construct: expressed in transfected cells; host or cells: Huh7 (human liver cells)
T1 sequence (P08235 726-964 limits assumed): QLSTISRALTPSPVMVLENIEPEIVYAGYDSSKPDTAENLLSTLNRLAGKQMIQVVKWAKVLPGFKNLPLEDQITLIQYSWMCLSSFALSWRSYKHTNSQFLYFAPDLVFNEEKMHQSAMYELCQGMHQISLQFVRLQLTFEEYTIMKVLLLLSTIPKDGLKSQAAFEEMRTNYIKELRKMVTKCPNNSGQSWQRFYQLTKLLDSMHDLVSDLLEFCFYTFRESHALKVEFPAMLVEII
Assay: Cell-based Gal4 response element-controlled luciferase reporter assay (MR antagonism)
Details: Huh7 human liver cells transfected with Gal4 DBD-MR LBD fusion and luciferase reporter; block of agonist-induced activation; overnight incubation
Description: Method 1: Cell-based Gal4 Response Element-controlled Luciferase Reporter Assay
An in vitro assay can be used to evaluate mineralocorticoid receptor (MR) antagonism by a test compound. […] An agonist of the receptor can bind to and activate the receptor LBD, which activate the expression of the Gal4 response element containing luciferase reporter gene. Antagonists can compete for binding to the receptor LBDs and decrease the transcription activity of the reporter gene. Measurement of luciferase activity allows quantitative determinations of the reporter transcription in the presence of either agonists or agonists and antagonists in combination. β-galactosidase activity, which is unaffected by ligand, is used to normalize the transfection efficiency in the cell population.
Huh7 cells were plated in RPMI1640+10% fetal bovine serum (Invitrogen Corporation, San Diego, Calif.), at 10,000 cells per well in 96-well tissue culture dishes for approximately 24 hours. Cells were then transfected using FuGENE™ 6 Transfection Reagent according to manufacturers' instructions (Roche Molecular Biochemicals, Indianapolis, Ind.). Approximately 20 hours after transfection, media were removed. Cells were washed once with PBS and treated (n=6/group) with agonist for each receptor (all chemicals from Sigma, St. Louis, Mo.), and with compounds. Agonist concentrations represent 70-80% of full activation of each receptor.
Compounds were dissolved in DMSO at 10 mM and diluted to final concentrations in phenol red-free media that contained 10% charcoal- and dextran-stripped serum (Life Technologies, Gathersburg, Md.). Following overnight incubation (18-20 hours) with compounds, the medium was removed and replaced with 100 μL per well of PBS and 100 μL of Steady-Glo™ lysis buffer with luciferase substrate (Promega Corporation, Madison, Wis.). After a 30-minute incubation to completely lyse the cells, 100 μL of the lysate was transferred to a black, Dynatech Microfluor assay plates (Dynex Corporation, Chantilly, Va.) to measure luciferase activity. The plate was sealed with TopSeal self-adhesive film, dark-adapted for 5 minutes, then counted in a TopCount Plate Reader (Packard Instrument Company, Meriden, Conn.) in single photon counting mode. The remaining lysate was used for determination of β-galactosidase activity. In a clear 96-well assay plate, 100 μL of cell lysate was added to 100 μL β-galactosidase assay buffer per well. The assay buffer consisted of 60 mM Na2HPO4, 40 mM NaH2PO4, 10 mM KCl, 1 mM MgSO4, 50 mM β-mercaptoethanol, and 2.5 mg/mL ONPG, the latter two reagents were added just prior to assay (all chemicals from Sigma). The reaction was allowed to proceed until a distinct yellow color developed. Reactions were stopped by the addition of 100 μL per well 1 M Na2CO3 and plates were read at 420 nm in Victor-2 (Perkin Elmer Life Sciences, Boston, Mass.). Values (relative luciferase activity) for each sample were expressed as a ratio of luciferase activity to OD420β-galactosidase activity measured in arbitrary units for each well. […] “b” is the slope, “c” is the IC50 or EC50. “x” is the concentration of the compound and “y” the activity at that concentration.

Compound | IC50 [µM]
N#Cc1ccc(N2N=C3c4ccc(C(=O)O)cc4CCC3C2c2ccc(F)cc2)cc1C(F)(F)F (racemic) [Example 9, 2-[4-cyano-3-(trifluoromethyl)phenyl]-3-(4-fluorophenyl)-3,3a,4,5-tetrahydro-2H-benzo[g]indazole-7-carboxylic acid] | 0.17
N#Cc1ccc(N2N=C3c4ccc(C(=O)O)cc4OCC3C2C2CC2)cc1Cl (racemic) [Example 76, 2-(3-chloro-4-cyanophenyl)-3-cyclopropyl-2,3,3a,4-tetrahydrochromeno[4,3-c]pyrazole-7-carboxylic acid] | > 1
Cc1cc(N2N=C3c4ccc(C(=O)O)cc4OCC3C2C2CC2)ccc1C#N (racemic) [Example 75, 2-(4-cyano-3-methylphenyl)-3-cyclopropyl-2,3,3a,4-tetrahydrochromeno[4,3-c]pyrazole-7-carboxylic acid] | 0.711
N#Cc1ccc(N2N=C3c4ccc(C(=O)O)cc4CCC3C2C2CCCC2)cc1OCc1ccccc1 (racemic) [Example 31, 2-(3-(benzyloxy)-4-cyanophenyl)-3-cyclopentyl-3,3a,4,5-tetrahydro-2H-benzo[g]indazole-7-carboxylic acid] | 0.488
N#Cc1ccc(N2N=C3c4ccc(C(=O)O)cc4OC[C@H]3[C@H]2C2CCCC2)cc1Cl [Example 66, (3R,3aS)-2-(3-chloro-4-cyanophenyl)-3-cyclopentyl-2,3,3a,4-tetrahydrochromeno[4,3-c]pyrazole-7-carboxylic acid] | 3.35
C[S+]([O-])CCNC(=O)c1ccc2c(c1)CC[C@H]1C2=NN(c2ccc(C#N)c(Cl)c2)[C@H]1C1CCOCC1 (mixture of isomers) [Example 99] | 0.014
N#Cc1ccc(N2N=C3c4ccc(C(=O)O)cc4CC[C@@H]3[C@@H]2c2ccoc2)cc1Cl [Example 47, (3R,3aR)-2-(3-chloro-4-cyanophenyl)-3-(3-furyl)-3,3a,4,5-tetrahydro-2H-benzo[g]indazole-7-carboxylic acid] | 0.018
Cc1cc(N2N=C3c4ccc(O)cc4CCC3C2c2ccc(F)cc2)ccc1C#N (centres unmarked) [Example 80] | 0.049
Cc1cc(N2N=C3c4ccc(C(=O)O)cc4CCC3C2c2ccc(F)cc2)ccc1C#N (racemic) [Example 6, 2-(4-cyano-3-methylphenyl)-3-(4-fluorophenyl)-3,3a,4,5-tetrahydro-2H-benzo[g]indazole-7-carboxylic acid] | 0.081
Cc1ccc(C2C3CCc4cc(C(=O)O)ccc4C3=NN2c2ccc(C#N)c(Cl)c2)o1 (racemic) [Example 39] | 0.022
COC(=O)c1ccc2c(c1)CCC1C2=NN(c2ccc(C#N)c(OCc3ccccc3)c2)C1C1CCCC1 (racemic) [Example 30, methyl 2-(3-(benzyloxy)-4-cyanophenyl)-3-cyclopentyl-3,3a,4,5-tetrahydro-2H-benzo[g]indazole-7-carboxylate] | 0.446
N#Cc1ccc(N2N=C3c4ccc(CC(=O)O)cc4OCC3C2c2ccc(F)cc2)cc1 (racemic) [Example 79, (±)-(3RS,3aRS)-[2-(4-cyanophenyl)-3-(4-fluorophenyl)-2,3,3a,4-tetrahydrochromeno[4,3-c]pyrazol-7-yl]acetic acid] | 6.92
N#Cc1ccc(N2N=C3c4ccc(C(=O)O)cc4OCC3C2C2CCCC2)cc1Cl (racemic) [Example 64, 2-(3-chloro-4-cyanophenyl)-3-cyclopentyl-2,3,3a,4-tetrahydrochromeno[4,3-c]pyrazole-7-carboxylic acid] | 0.065
N#Cc1ccc(N2N=C3c4ccc(C(=O)O)cc4OC[C@H]3[C@H]2C2CCCC2)cc1 [Example 72, (3R,3aS)-2-(4-cyanophenyl)-3-cyclopentyl-2,3,3a,4-tetrahydrochromeno[4,3-c]pyrazole-7-carboxylic acid] | 8.1
Cc1cc(N2N=C3c4ccc(C(=O)O)cc4CC[C@H]3[C@H]2c2ccc(F)cc2)ccc1C#N [Example 8, (3S,3aS)-2-(4-cyano-3-methylphenyl)-3-(4-fluorophenyl)-3,3a,4,5-tetrahydro-2H-benzo[g]indazole-7-carboxylic acid] | 2.74
N#Cc1ccc(N2N=C3c4ccc(C(=O)O)cc4OC[C@@H]3[C@@H]2c2ccc(F)cc2)cc1Cl [Example 56, (3R,3aR)-2-(3-chloro-4-cyanophenyl)-3-(4-fluorophenyl)-2,3,3a,4-tetrahydrochromeno[4,3-c]pyrazole-7-carboxylic acid] | 0.302
N#Cc1ccc(N2N=C3c4ccc(C(=O)O)cc4OC[C@@H]3[C@@H]2c2ccc(F)cc2)cc1 [Example 59, (3R,3aR)-2-(4-cyanophenyl)-3-(4-fluorophenyl)-2,3,3a,4-tetrahydrochromeno[4,3-c]pyrazole-7-carboxylic acid] | > 1

Continued, values first:

IC50 [µM] | Compound
0.523 | CCN(CC)CCN(CCN(CC)CC)C(=O)c1ccc2c(c1)CC[C@H]1C2=NN(c2ccc(C#N)c(Cl)c2)[C@H]1c1ccc(F)cc1 (racemic) [Example 107, (±)-(3RS,3aRS)-2-(3-chloro-4-cyanophenyl)-N,N-bis(2-(diethylamino)ethyl)-3-(4-fluorophenyl)-3,3a,4,5-tetrahydro-2H-benzo[g]indazole-7-carboxamide bistrifluoroacetate]
0.002 | CS(=O)(=O)CCNC(=O)c1ccc2c(c1)CC[C@H]1C2=NN(c2ccc(C#N)c(Cl)c2)[C@H]1c1ccc(F)cc1 [Example 95, (3R,3aR)-2-(3-chloro-4-cyanophenyl)-3-(4-fluorophenyl)-N-(2-(methylsulfonyl)ethyl)-3,3a,4,5-tetrahydro-2H-benzo[g]indazole-7-carboxamide]
0.113 | N#Cc1ccc(N2N=C3c4ccc(C(=O)NCCCCCC(=O)O)cc4CC[C@@H]3[C@@H]2c2ccc(F)cc2)cc1Cl (racemic) [Example 103, (±)-6-((3RS,3aRS)-2-(3-chloro-4-cyanophenyl)-3-(4-fluorophenyl)-3,3a,4,5-tetrahydro-2H-benzo[g]indazole-7-carboxamido)hexanoic acid]
1.1 | N#Cc1ccc(N2N=C3c4ccc(O)cc4CCC3C2c2ccc(F)cc2)cc1 (racemic) [Example 90, (±)-4-((3RS,3aSR)-3-(4-fluorophenyl)-7-hydroxy-3,3a,4,5-tetrahydrobenzo[g]indazol-2-yl)benzonitrile]
> 1 | N#Cc1ccc(N2N=C3c4ccc(O)cc4CC[C@H]3[C@H]2c2ccc(F)cc2)cc1C(F)(F)F [Example 85, 4-((3S,3aS)-3-(4-fluorophenyl)-7-hydroxy-3,3a,4,5-tetrahydrobenzo[g]indazol-2-yl)-2-(trifluoromethyl)benzonitrile]
0.077 | N#Cc1ccc(N2N=C3c4ccc(O)cc4CCC3C2c2ccc(F)cc2)cc1C(F)(F)F (racemic) [Example 83]
> 1 | N#Cc1ccc(N2N=C3c4ccc(C(=O)NCC(=O)NCC(=O)O)cc4CC[C@H]3[C@@H]2c2ccc(F)cc2)cc1Cl (racemic) [Example 108, (±)-2-(2-((3RS,3aSR)-2-(3-chloro-4-cyanophenyl)-3-(4-fluorophenyl)-3,3a,4,5-tetrahydro-2H-benzo[g]indazole-7-carboxamido)acetamido)acetic acid]
0.003 | Cc1ccc([C@H]2[C@H]3CCc4cc(C(=O)NCCS(C)(=O)=O)ccc4C3=NN2c2ccc(C#N)c(Cl)c2)o1 [Example 117, (3R,3aR)-2-(3-chloro-4-cyanophenyl)-3-(5-methyl-2-furyl)-N-[2-(methylsulfonyl)ethyl]-3,3a,4,5-tetrahydro-2H-benzo[g]indazole-7-carboxamide]
0.035 | Cc1cc(N2N=C3c4ccc(O)cc4CC[C@@H]3[C@@H]2c2ccc(F)cc2)ccc1C#N [Example 81, 4-((3R,3aR)-3-(4-fluorophenyl)-7-hydroxy-3,3a,4,5-tetrahydrobenzo[g]indazol-2-yl)-2-methylbenzonitrile]
